Laboratory results published in patent US8394355B2, “Use of UTP for the diagnosis of stenoses and other conditions of restricted blood flow” (P2 science Aps, priority 2009, dated 2013).
Several values for one entry are separate records, joined by “and”; a condition that tells them apart may be missing. Equal values may be shown once.

Key:
[1] = tested on: coronary arteries in humans with coronary artery disease; assay: FFR during continuous intracoronary infusion via guiding catheter (Example 2); assay type: in vivo; parameters: key to lowest FFR level / difference in FFR between adenosine and UTP / FFR / FFR Mean: FFR = Pd/Pa (distal/proximal coronary pressure ratio); conditions: for adverse effects during IC continuous infusion / % of patients with FFR ≦ 0.75 / % of patients with FFR ≦ 0.8: guiding catheter study; for % of patients with FFR ≦ 0.75 / % of patients with FFR ≦ 0.8: 240 μg/min (n = 23); for lowest FFR level: lowest mean over the dose response curve, ± 2SEM, P<0.05
Experimental: The study was performed in 23 patients undergoing elective coronary arteriography (CAG) due to repetitive episodes of typical ischemic chest pain or in patients with recent Non-ST Elevated Myocardial Infarction (>2 days from entry into study). In eligible patients with uni- or multivessel coronary artery disease, lesions with stenosis of at least 50% of their diameter and that were thought to require PCI on the basis of angiographic appearance and clinical data were identified.
In the first part of the experiment, FFR and Coronary Flow (velocity, CFR) were measured after the induction of coronary hyperemia by a continuous intracoronary infusion of UTP (Jena Bioscience GmbH, Germany) and adenosine in random order in a guide catheter (5F catheter, Cordis Corp.). Two UTP doses of 240 and 360 μg/min were tested. UTP was prepared by dissolving 100 mg of UTP trisalt (Sigma Aldrich) in 50 ml isotonic NaCl. Of this 50 ml solution, 40 ml was filter sterilized and added to sterile NaCl solution to a final volume of 500 ml, providing a 0.16 mg/ml concentration. 8-10 50 ml syringes of this solution can be prepared (2 syringes per FFR study). 3 ml/min=480 μg/min=0.9 μmol/min. Subjects thus received either 1.5 ml/min of UTP infusion or 2.25 mL/min of UTP infusion for a total of 3 minutes each. Patients also received adenosine (Sigma Aldrich) in the same eqipotent concentration.
All measurements were performed on at least 2 separate occasions to achieve a reproducible result with a mean value calculated. After each measurement, care was taken that APV returned to baseline before the administration of the next dose. For all measurements using both drugs and both routes of administration, changes in heart rate, blood pressure, and ECG were recorded.
In the second part of the experiment, a full dose response curve was generated for a gradual incremental increase in continuous UTP infusion while both CFR and FFR were measured simultaneously prior to percutaneous coronary intervention (PCI). Hyperemia was induced at 80 μg/min of continuous intracoronary UTP and adenosine, and the flow reserve values were compared (Table 1).
In the third part of the experiment, both CFR and FFR were measured simultaneously after percutaneous coronary intervention (PCI). Hyperemia was induced by either 240 or 360 μg/min of continuous intracoronary UTP and equipotent adenosine, and the flow reserve values were in some patients compared with the hyperemic response of a complete, proximal coronary occlusion for 30 s.
FFR is defined as the ratio of hyperemic flow in a stenotic artery to the hyperemic flow in the same artery if there was no stenosis present. FFR therefore expresses maximum hyperemic blood flow in a stenotic vessel as a fraction of its normal value. FFR can be calculated from intracoronary pressure measurements obtained during maximal hyperemia by the following equation: FFR═Pd−Pv/Pa−Pv→Pd/Pa, where Pa is the mean proximal coronary pressure (mean aortic pressure), Pd is the mean distal coronary pressure, and Pv is the mean central venous pressure. The coronary flow (velocity) reserve is the ratio of maximum to baseline hyperemic coronary flow velocity and is used as a surrogate for CFR. Using the Volcano Combomap®, APV throughout the cardiac phase was measured and CFR calculated from APV(hyperemia)/APV(basal).

[2] = tested on: pulmonary and systemic circulation of healthy female pigs; assay: Systemic (central intravenous) nucleotide infusion in pigs, hemodynamic response; assay type: in vivo; conditions: for increase in CO (cardiac output): FIG. 7b; for increase in HR from baseline: FIG. 7c; for decrease in SV (stroke volume): FIG. 7d; for MAP lowered by, from baseline: p<0.05, FIG. 7a; for decrease in PVR (pulmonary vascular resistance) from baseline: pig, in vivo
Experimental: In the present study, the hemodynamic response in the pulmonary and systemic circulation was tested, as well as the effect of central intravenous infusions of ATP, ADP, ADO, and UTP on the heart.
Infusion rates were aimed at exerting a pronounced systemic response in the lowering of arterial blood pressure, but avoiding a total circulatory collapse.
Methods: 10 healthy female pigs (Department of Experimental Medicine and Surgery, University of Copenhagen, Denmark) bred as a combination of the Danish Landrace (⅓) and Yorkshire (⅔), with a medium weight of 41±2 kg were investigated.
Mean arterial blood pressure (MAP) was obtained from the catheter in arcus aorta with the transducer (Pressure Monitoring Kit, Baxter, Deerfield, Ill., USA) positioned at the level of the heart. The left femoral artery was subsequently exposed and an ultrasound doppler probe attached for peripheral femoral artery flow measurements (CM-4000, Cardiomed, Norway). MAP, HR and peripheral flow were monitored and data continuously collected using a PowerLab system (Adinstruments, Australia). Cardiac Output (CO) was determined in triplicates by thermodilution, following an injection of 10 ml of cooled saline solution. Blood samples were withdrawn from catheters in aorta and the right atrium at baseline and at steady state when MAP had decreased maximally or by ˜50%. Calculated variables were: stroke volume of the heart (SV=CO/HR), pulmonary vascular resistance (PVR=(MPAP−PCWP)/CO), systemic vascular resistance (SVR=(MAP−MRAP)/CO), leg vascular conductance (LVC=LBF/(MAP−MRAP)), and arterial (aorta) and mixed venous (pulmonary artery) oxygen content (Hb*1.34*O2 saturation). In the calculation of LVC, MRAP was used as an estimate of mean femoral venous pressure (MFVP), as MRAP was found in a series of measurements to equal MFVP, as estimated in 10 supine pigs. As a potential estimate for myocardial oxygen demand the rate pressure product (RPP=MAP*HR) was also calculated.
Drug infusions: Each animal was administered the nucleotides ATP, UTP, ADP (Sigma, St. Louis, Mo., USA) and ADO (Item Development AB, Stocksund, Sweden), through the internal jugular vein in the right atrium, in random order following blinded allocation. The nucleotides and ADO were prepared by dissolving in saline so as to achieve the target concentration of ATP (40±0.5 μmol/min), ADP (43±8 μmol/min), UTP (up to 1,600 μmol/min), and ADO (73±7 μmol/min). The nucleotides were infused in increasing dosages at 2 min intervals aiming at reducing MAP by maximally ˜50%. Thereafter, that specific infusion rate was maintained for ˜3-5 min. After each intervention the animal rested for ˜30 min, allowing resting cardiovascular variables to be reestablished. Thereafter, a new cycle of nucleotide infusion was administered. In the present study we aimed to allow the drugs to reduce MAP by ˜50%, but without inducing a hemodynamic and circulatory collapse, to simulate a pronounced state of systemic vasodilation, as may be observed for instance in a shock condition.

[3] = mean of six patients, 80 μg/min

SMILES	adverse effects during IC continuous infusion [1]	% of patients with FFR ≦ 0.75 [1] [%]	% of patients with FFR ≦ 0.8 [1] [%]	lowest FFR level [1]	FFR Mean [1, 3]	FFR Mean ([1]; mean, 160 μg/min)	FFR Mean ([1]; mean, 240 μg/min)	FFR Mean ([1]; mean, 320 μg/min)	FFR Mean ([1]; mean, 400 μg/min)	increase in CO (cardiac output) [2]	increase in HR from baseline [2]	decrease in SV (stroke volume) [2]	decrease in SVR (systemic vascular resistance) from baseline ([2]; p<0.05) [%]	increase in LVC (leg vascular conductance) from baseline ([2]; p<0.05)	MAP lowered by, from baseline [2] [%]	decrease in PVR (pulmonary vascular resistance) from baseline [2]	further results
Nc1ncnc2c1ncn2[C@@H]1O[C@H](CO)[C@@H](O)[C@H]1O [adenosine]	most patients felt uncomfortable chest pain and 2 patients had 3 degree A-V block	39	43	0.81±0.11	0.86	0.81	0.81	0.82	0.82	31.4±9.9%	did not increase	did not significantly change SV	59.0±3.0	~50%	47.2±1.5	34.3±2.6%	FFR ([1]; individual patients (row = patient no.), IC continuous infusion 80 μg/min, guide catheter, listed as ADO): 0.83 and 0.95 and 0.76 and 0.88; FFR ([1]; individual patients, 160 μg/min, listed as ADO): 0.80 and 0.95 and 0.60 and 0.96 and 0.75; FFR ([1]; individual patients, 240 μg/min, listed as ADO): 0.81 and 0.94 and 0.60 and 0.87 and 0.91 and 0.71; FFR ([1]; individual patients, 320 μg/min, listed as ADO): 0.79 and 0.96 and 0.54 and 1.02 and 0.89 and 0.70; FFR ([1]; individual patients, 400 μg/min, listed as ADO): 0.56 and 1.01 and 0.89; decrease in LBF (leg blood flow) from baseline ([2]; p<0.05): 19.4±10.7%; increase in LVC (leg vascular conductance) from baseline ([2]; p<0.05, listed as ADO): 56.4±12.9%; infusion rate at target MAP ([2]; target ~50% reduction in baseline MAP, right atrium infusion): 72.7 ± 6.6 µmol/min
O=c1ccn([C@@H]2O[C@H](COP(=O)(O)OP(=O)(O)OP(=O)(O)O)C(O)[C@@H]2O)c(=O)[nH]1 (some centres unmarked) [UTP, Uridine 5-triphosphate]	None of the UTP-treated patients in the current trial had chest pain, dyspnea, second or 3 degree A-V block or changes in systemic blood pressure and heart rate	47	65	0.74±0.13	0.74	0.77	0.79	0.78	0.79	72.5±15.2% and ~70%	51.1±9.0%	did not significantly change SV	62.9±2.6	150.0±17.1% and ~150%	35.0±3.2	did not significantly alter	FFR in comparison to adenosine infusion ([1]; all 23 patients, IC 240 μg/min, p=0.003, FIG. 1): significantly decreased; time to induction of maximal hyperemia ([1]; all IC continuous infusion rates, versus adenosine): shorter; optimal dose for achieving maximal coronary hyperemia ([1]; guide catheter method): 80 to 400 µg/min; FFR ([1]; individual patients (row = patient no.), IC continuous infusion 80 μg/min, guide catheter): 0.73 and 0.79 and 0.88 and 0.56; FFR ([1]; individual patients, 160 μg/min): 0.90 and 0.73 and 0.79 and 0.86 and 0.56; FFR ([1]; individual patients, 240 μg/min): 0.89 (2×) and 0.73 and 0.79 and 0.87 and 0.55; FFR ([1]; individual patients, 320 μg/min): 0.90 and 0.89 and 0.72 and 0.77 and 0.86 and 0.56; FFR ([1]; individual patients, 400 μg/min): 0.90 and 0.92 and 0.56; difference in FFR between adenosine and UTP ([1]; standard deviation of 0.15-0.17, p=0.003): 0.05; arrhythmias (missed beats, VT, SVT or AV nodal block) ([2]; intravenous systemic infusion): does not produce arrhythmias; infusion rate giving the ~35% reduction in MAP ([2]; maximal MAP reduction obtainable with UTP): 86.5 ± 18.2 µmol/min; increase in LBF (leg blood flow) ([2]; p<0.05, FIG. 6c): 53.7±17.8% and ~50%; decrease in rate pressure product ([2]; tendency): ~10%
